Structures can show the parent of a compound that is named as a salt.
Target: Glycogen synthase kinase-3 beta (Homo sapiens, UniProt P49841)
Assay: concentration-response blocking of human GSK3B – biochemical, luminescence, cell-free homogeneous, retest, dose response (AID 434954)

Glycogen synthase kinase-3 beta, sequence (P49841 whole entry): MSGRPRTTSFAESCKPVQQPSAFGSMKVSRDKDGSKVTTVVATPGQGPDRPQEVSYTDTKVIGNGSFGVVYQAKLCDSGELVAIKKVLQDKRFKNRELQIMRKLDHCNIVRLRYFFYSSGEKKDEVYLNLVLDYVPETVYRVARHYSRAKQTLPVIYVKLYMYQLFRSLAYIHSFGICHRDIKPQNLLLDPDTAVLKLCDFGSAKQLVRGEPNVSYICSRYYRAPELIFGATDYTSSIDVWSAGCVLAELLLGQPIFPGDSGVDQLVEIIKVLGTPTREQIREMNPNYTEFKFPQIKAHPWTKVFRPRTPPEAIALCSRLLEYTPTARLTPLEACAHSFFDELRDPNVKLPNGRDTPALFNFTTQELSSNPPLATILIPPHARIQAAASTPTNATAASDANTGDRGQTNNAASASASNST

Question: With OCCNc1nc2nonc2nc1NCCO as the compound, how does the EC50 read?
Answer: > 300 µM

Question: CN(C)c1ccc(-c2nc3ccccc3n2C)cc1 [MLS000089904] was tested. Which EC50 did it give?
Answer: > 300 µM

Question: Which EC50 does the source give for O=C(O)c1ccccc1Nc1ccnc(C(F)(F)F)c1 [2-[[2-(trifluoromethyl)-4-pyridinyl]amino]benzoic acid] here?
Answer: > 300 µM

Question: For CCCn1nc(NC(=O)c2cccs2)c2cc3cccc(C)c3nc21, which EC50 is on record?
Answer: > 300 µM

Question: With NS(=O)(=O)c1ccc(CCNC(=O)CSc2nc3ccsc3c(=O)n2C2CC2)cc1 [MLS000586542] as the compound, how does the EC50 read?
Answer: > 300 µM

Question: For NC(=O)c1cccc2c1C(=O)N(C1CCCCC1)C2 [2-cyclohexyl-3-oxoisoindoline-4-carboxamide], which EC50 is on record?
Answer: > 300 µM

Question: For C=CCOC(=O)C1C(C)=Nc2ncnn2C1c1cccs1 (stereo not given), which EC50 is on record?
Answer: > 300 µM

Question: Which EC50 does the source give for CCN1CCN(C(=O)Cn2nc(C)n3c(cc4c(OC)cccc43)c2=O)CC1 [MLS001076371] here?
Answer: > 300 µM

Question: Cc1cc(NC(=O)CSc2nc(O)c(C#N)c(-c3ccccc3)n2)no1 [2-[(5-cyano-4-oxidanylidene-6-phenyl-1H-pyrimidin-2-yl)sulfanyl]-N-(5-methyl-1,2-oxazol-3-yl)ethanamide] was tested. Which EC50 did it give?
Answer: > 300 µM

Question: Which EC50 does the source give for NC1=N/C(=N\c2ccccc2)c2ccccc21 [MLS000057025] here?
Answer: > 300 µM

Question: N#CCCn1cc(CN=O)c(-c2cccc([N+](=O)[O-])c2)n1 [3-[4-(hydroxyiminomethyl)-3-(3-nitrophenyl)pyrazol-1-yl]propanenitrile] was tested. Which EC50 did it give?
Answer: 50.1 µM

Question: Which EC50 does the source give for COc1cccc2cc(C(=O)NCc3ccccc3Br)c(=O)oc12 [N-[(2-bromophenyl)methyl]-8-methoxy-2-oxo-1-benzopyran-3-carboxamide] here?
Answer: > 300 µM

Question: Which EC50 does the source give for O=C(c1cccc(-c2ccccc2)c1)N1CC[C@@H](N2CCC(O)CC2)[C@H](O)C1 here?
Answer: > 300 µM

Question: How did the EC50 turn out when CC(C)c1c(C(=O)NN=Cc2ccoc2)nnn1-c1nonc1N [MLS001139450] was run?
Answer: > 300 µM

Question: For c1ccc(CN=Nc2nccc(-c3cccnc3)n2)cc1, which EC50 is on record?
Answer: 16.9 µM

Question: With COc1ccc(CN(CC(=O)NCCc2ccccc2)C(=O)CCC(=O)Nc2ccccn2)cc1 [N'-[(4-methoxyphenyl)methyl]-N'-[2-oxo-2-(2-phenylethylamino)ethyl]-N-pyridin-2-ylbutanediamide] as the compound, how does the EC50 read?
Answer: > 300 µM

Question: Which EC50 does the source give for CC(C)(C)C(=O)COC(=O)c1ccc(O)cc1 here?
Answer: > 300 µM

Question: For O=[N+]([O-])c1ccccc1Oc1ccccc1Cl, which EC50 is on record?
Answer: > 300 µM

Question: With COc1ccc(/C=C2\Sc3ccc(C(=O)NCCCN4CCCC4)cc3N(C)C2=O)cc1OC [(2Z)-2-[(3,4-dimethoxyphenyl)methylidene]-4-methyl-3-oxo-N-(3-pyrrolidin-1-ylpropyl)-1,4-benzothiazine-6-carboxamide] as the compound, how does the EC50 read?
Answer: > 300 µM

Question: O=C(O)c1cc(N=NCc2ccc(-c3ccc(F)cc3)o2)ccc1Cl [2-chloranyl-5-[2-[[5-(4-fluorophenyl)furan-2-yl]methylidene]hydrazinyl]benzoic acid] was tested. Which EC50 did it give?
Answer: > 300 µM

Question: Which EC50 does the source give for O=C1Nc2cc(C(=O)NCCCN3CCCC3)ccc2S/C1=C\c1ccccc1 [(2Z)-3-oxidanylidene-2-(phenylmethylidene)-N-(3-pyrrolidin-1-ylpropyl)-4H-1,4-benzothiazine-6-carboxamide] here?
Answer: 5.9 µM

Question: How did the EC50 turn out when CC(C)=CCc1c(O)c(CC=C(C)C)c2c(c1O)C(=O)CC(c1ccc(O)cc1)O2 (stereo not given) [2-(4-hydroxyphenyl)-6,8-bis(3-methylbut-2-enyl)-5,7-bis(oxidanyl)-2,3-dihydrochromen-4-one] was run?
Answer: > 300 µM

Question: How did the EC50 turn out when CCOC(=O)c1cnc2ccc(OC)cc2c1NCCN1CCOCC1 [SMR000518517] was run?
Answer: > 300 µM

Question: Nc1nonc1-n1nnc(C(=O)NN=Cc2cccc(Cl)c2)c1CN1CCCC1 was tested. Which EC50 did it give?
Answer: 5.25 µM

Question: With CCOC(=O)CCNCC1COc2ccccc2O1 (stereo not given) [ethyl 3-(2,3-dihydro-1,4-benzodioxin-3-ylmethylamino)propanoate;hydrochloride] as the compound, how does the EC50 read?
Answer: > 300 µM

Question: Which EC50 does the source give for COc1ccc(Nc2nc(NCCCN3CCOCC3)nc(N)c2[N+](=O)[O-])cc1 [N4-(4-methoxyphenyl)-N2-(3-morpholin-4-ylpropyl)-5-nitro-pyrimidine-2,4,6-triamine] here?
Answer: 1.11 µM

Question: Which EC50 does the source give for Nc1nc(Nc2ccccc2)nc(N2CCOCC2)c1[N+](=O)[O-] [SMR000219795] here?
Answer: 20.3 µM

Question: CC1CCCCN1c1ncnc(N)c1[N+](=O)[O-] (stereo not given) [6-(2-methylpiperidin-1-yl)-5-nitro-pyrimidin-4-amine] was tested. Which EC50 did it give?
Answer: 8.18 µM

Question: CNc1nc(N)nc(-c2cc(Cl)ccc2OC)n1 [6-(5-chloranyl-2-methoxy-phenyl)-N2-methyl-1,3,5-triazine-2,4-diamine] was tested. Which EC50 did it give?
Answer: > 300 µM

Question: How did the EC50 turn out when Cc1c(O)ccc(C(=O)CN2CCN(c3ccc(F)cc3)CC2)c1O [1-(2,4-dihydroxy-3-methylphenyl)-2-[4-(4-fluorophenyl)-1-piperazinyl]ethanone] was run?
Answer: > 300 µM

Question: c1cncc(-c2nc(NCC3CCCO3)c3ccccc3n2)c1 (stereo not given) was tested. Which EC50 did it give?
Answer: > 300 µM

Question: With O=C(Nc1cccc(F)c1)Nc1ccccn1 [MLS000111709] as the compound, how does the EC50 read?
Answer: > 300 µM

Question: With CC(C)OC(=O)c1nnn(-c2nonc2N)c1CSc1ccccn1 [1-(4-amino-1,2,5-oxadiazol-3-yl)-5-[(2-pyridinylthio)methyl]-4-triazolecarboxylic acid propan-2-yl ester] as the compound, how does the EC50 read?
Answer: 54.1 µM

Question: How did the EC50 turn out when O=C(Nc1nc2ccc(Cl)cc2s1)C1CC1 [N-(6-chloranyl-1,3-benzothiazol-2-yl)cyclopropanecarboxamide] was run?
Answer: 43.8 µM

Question: How did the EC50 turn out when CC1CCN(Cc2c(C(=O)NN=Cc3ccccc3O)nnn2-c2nonc2N)CC1 [SMR000620333] was run?
Answer: 0.7 µM

Question: How did the EC50 turn out when CC(C)=CCc1c(O)cc2c(c1O)C(=O)CC(c1ccc(O)cc1)O2 (stereo not given) [2-(4-hydroxyphenyl)-6-(3-methylbut-2-enyl)-5,7-bis(oxidanyl)-2,3-dihydrochromen-4-one] was run?
Answer: > 300 µM

Question: For COCC(C)n1c(C)cc(C(=O)COC(=O)c2ccc3c(c2)NC(=O)CS3)c1C (stereo not given), which EC50 is on record?
Answer: > 300 µM

Question: With CN(C)Cc1c(C(=O)NN=Cc2ccncc2)nnn1-c1nonc1N as the compound, how does the EC50 read?
Answer: 6.17 µM

Question: Which EC50 does the source give for C[C@@H]1O[C@@H](OC[C@H]2O[C@@H](Oc3c(-c4ccc(O)c(O)c4)oc4cc(O)cc(O)c4c3=O)[C@H](O)[C@@H](O)[C@@H]2O)[C@H](O)[C@H](O)[C@H]1O [3-Rhamnoglucosylquercetin] here?
Answer: 28 µM

Question: For CC(C)(C)C(=O)c1sc(Nc2ccccc2)nc1N [1-(4-amino-2-anilino-1,3-thiazol-5-yl)-2,2-dimethyl-1-propanone], which EC50 is on record?
Answer: 1 µM

Question: CC(C)[C@H](CO)Nc1nc(NCc2ccc(S(N)(=O)=O)cc2)c2ncn(C(C)C)c2n1 [4-[[[2-[[(2R)-1-hydroxy-3-methylbutan-2-yl]amino]-9-propan-2-yl-6-purinyl]amino]methyl]benzenesulfonamide] was tested. Which EC50 did it give?
Answer: 39.6 µM

Question: With CC(C)c1ccc(NC2=CC(=O)CC(C)(C)C2)cc1 [SMR000558851] as the compound, how does the EC50 read?
Answer: > 300 µM

Question: O=C(Nc1ccc(O)c2c(=O)cc(-c3ccccc3Cl)oc12)c1cccc(Cl)c1 was tested. Which EC50 did it give?
Answer: 87.4 µM

Question: CCN1CCN(Cc2c(O)ccc3c2O/C(=C\C=C\c2ccccc2)C3=O)CC1 [SMR000221319] was tested. Which EC50 did it give?
Answer: > 300 µM

Question: For Cc1ccc2c(c1)COc1c3ccc(C(=O)O)cc3nn1-2, which EC50 is on record?
Answer: 8.69 µM

Question: With CCC(OCC(O)CN1CCCCC1)c1ccccc1 (stereo not given) as the compound, how does the EC50 read?
Answer: > 300 µM

Question: Cc1ccc(/C=C2/Sc3ccc(C(=O)NCCN4CCOCC4)cc3NC2=O)cc1 was tested. Which EC50 did it give?
Answer: > 300 µM

Question: O=C(CSc1nnc(-c2cccnc2)n1-c1ccccc1)Nc1ccc2c(c1)OCO2 [MLS000050858] was tested. Which EC50 did it give?
Answer: > 300 µM

Question: COc1cc(CNC=C2C(=O)NC(=O)N(C(C)(C)C)C2=O)cc(OC)c1 [(5Z)-1-tert-butyl-5-[[(3,5-dimethoxyphenyl)methylamino]methylidene]-1,3-diazinane-2,4,6-trione] was tested. Which EC50 did it give?
Answer: > 300 µM

Question: How did the EC50 turn out when OC[C@H]1O[C@@H](n2cnc3c(O)ncnc32)[C@H](O)[C@@H]1O [Atorel] was run?
Answer: > 300 µM

From BindingDB's records for doi:10.7270/Q2TX3CTT (Broad Institute, 2010)
